# Source: PMC8002323 (Molecules, 2021)
# “And” between values parts separate entries of the source, which are not always exact repeats. Equal entries are not always repeated.
# Assays:
# [1] = biological target: T1, AChE (type VI-S, from electric eel) (Electrophorus electricus, UniProt O42275); assay: biochemical; format: biochemical; conditions: for IC50: AChE from Electric eel, mean of two independent experiments ± SD, read-out: AChE Inhib. IC50 ± SD; for AChE inhibition (in words): AChE from electric eel
# T1 construct: purchased
# T1 sequence (O42275 24-633): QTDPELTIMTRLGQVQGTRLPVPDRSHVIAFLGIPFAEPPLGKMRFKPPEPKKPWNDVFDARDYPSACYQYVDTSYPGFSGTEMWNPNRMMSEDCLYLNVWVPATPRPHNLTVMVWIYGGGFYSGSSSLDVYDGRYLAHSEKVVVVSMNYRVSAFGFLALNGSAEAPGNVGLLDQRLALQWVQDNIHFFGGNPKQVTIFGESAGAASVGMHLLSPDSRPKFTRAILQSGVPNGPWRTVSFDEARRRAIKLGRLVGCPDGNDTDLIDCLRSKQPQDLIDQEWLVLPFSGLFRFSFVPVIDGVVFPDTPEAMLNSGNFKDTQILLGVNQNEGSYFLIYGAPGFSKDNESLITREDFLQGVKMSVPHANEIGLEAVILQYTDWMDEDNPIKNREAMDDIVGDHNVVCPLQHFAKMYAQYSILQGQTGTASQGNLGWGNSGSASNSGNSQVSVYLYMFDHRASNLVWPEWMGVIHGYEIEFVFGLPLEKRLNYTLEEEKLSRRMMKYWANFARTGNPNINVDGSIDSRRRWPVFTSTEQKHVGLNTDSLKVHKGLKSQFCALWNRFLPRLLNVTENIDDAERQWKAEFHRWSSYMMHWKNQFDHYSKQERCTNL
# Procedure: The acetylcholinesterase inhibitory activity was assessed by an adaptation of the Ellman’s method. The assay solution contained 4-(2-hydroxyethyl)-1-piperazineethanesulfonic acid (HEPES) buffer (50 mM, pH 8.0), 5,5′-dithiobis-(2-nitrobenzoic acid) (DTNB, 3 mM), the stock solution of each compound in methanol (1 mg/mL), AChE (type VI-S, from electric eel) and the required quantity of methanol to reach the desired volume of sample mixture in a 1 mL cuvette. Samples were incubated for 15 min and then 75 μL of acetylthiocholine iodide (AThChI) solution (16 mM) was added. The reaction was monitored for 5 min at 405 nm. Assays were run with a blank containing all the reagents but AChE. Reaction rates were calculated as well as the enzyme activity. A positive control reaction was performed using methanol as a sample solution. The fraction of enzyme inhibition due to the existence of rising concentration of the test compound was calculated using Equation (1), where vi = starting reaction rate in the presence of inhibitor; vo = starting reaction rate of the control reaction. (1) %I =100−100 × […]
# The inhibition curves were achieved by plotting the percentage of enzymatic inhibition against inhibitor concentration and a calibration curve was got from which the linear regression parameters were obtained.
# Aβ1–42 [2] = biological target: T2, Aβ1–42 (Homo sapiens, UniProt P05067); assay: Inhibition of self-induced Aβ1–42 aggregation (thioflavin-T fluorescence method); conditions: read-out: Aβ1–42 Aggreg. Inhib.
# T2 sequence (P05067 672-713 limits assumed): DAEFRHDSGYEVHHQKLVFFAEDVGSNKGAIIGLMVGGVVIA
# Procedure: Inhibitory capacity of the compounds for the Aβ1–42 aggregation was assessed based on the fluorescence properties of thioflavine T (ThT), measured with a Varian Cary Eclipse spectrofluorometer.
# A previously prepared solution of Aβ1–42 was used.
# To the resulting alkaline Aβ1–42 solution was added phosphate buffer (pH 8.0). The compounds tested were diluted in MeOH (1 mg/mL) and then further diluted in phosphate buffer. Two different types of experiments were prepared in a final volume of 60 μL. The solution for the control ligand assay consists in 30 µL of phosphate buffer and 30 µL of Aβ1–42 solution, to evaluate the aggregation without any inhibition, while the solution for the ligand assay consists of 20 µL of phosphate buffer, 30 µL of Aβ1–42 solution and 10 µL of the ligand solution, to evaluate the effect of the ligand in the aggregation. For each experiment a blank sample, without Aβ1–42, is used to monitor the effect of the compounds in the fluorescence. These samples were left incubating in a water bath (CERTOMAT WR), for 24 h, at 37 °C with gentle shaking [14].
# A glycine-NaOH buffer (pH 8.5) containing ThT (5 μM) was added to each sample. Samples were placed in a microplate and the fluorescence signal was monitored at 446 nm (λexc) and 490 nm (λem) [40].
# (2) %I=100−Fi/F0× 100 where Fi and F0 are the fluorescence intensities in the presence and absence of the compound, respectively, minus the fluorescence intensities of the respective blanks. Statistical analysis was performed in Microsoft Office Excel®.
# [3] = tested on: SH-SY5Y human neuroblastoma cells; assay: Dose-response screening of cell viability (MTT reduction assay); format: cell-based; conditions: SH-SY5Y cells treated 25 h, 2.5–50 μM
# Procedure: (§1) SH-SY5Y human neuroblastoma cells (ATCC-CRL-2266) (American Type Culture Collection, Manassas, Virgínia, USA) were plated in DMEM/F12 (Dulbecco’s Modified Eagle Medium/Ham’s F-12 Nutrient Mixture; Thermo Fisher Scientific) with 10% heat inactivated fetal bovine serum, 50 U/mL penicillin and 50 U/mL streptomycin under a humidified atmosphere with 95% relative humidity at 37 °C at a 0.16 × 10^6 cells/mL density. Each of the tested substances (6, 7, 8, 9) were dissolved in DMSO to prepare a stock solution at a 25 mM concentration and stored at −20 °C until further use. SH-SY5Y cells were treated for 25 h with varying concentrations of compounds, in order to select the highest non-toxic concentration. The selected concentrations for each compound were: 40 µM final concentration for 6; 15 µM final concentration for 7; 30 µM final concentration for 8 and 2.5 µM final concentration for 9. […] For the neuroprotection assays, the incubation with Aβ1–42 or L-ascorbic acid/ferrous sulphate treatment was preceded with 1 h incubation of the compounds when needed. Pre-incubation was followed by 24 h treatment of Aβ1–42 or Fe/Asc, accounting a total of 25 h. Aβ1–42 was prepared as 276.9 µM stock in sterile water and administrated in the medium at a 2.5 µM final concentration. Ferrous sulphate was freshly prepared as 0.36 M stock in water and added to the medium at 2.5 mM final concentration. L-ascorbic acid was freshly prepared as 80 mM stock in water and added to the medium at 5 mM final concentration. Aβ1–42 was purchased from Bachem (Torrance, CA, USA) and ferrous sulphate and L-ascorbic acid from Sigma Chemical Co. (St. Louis, MO, USA).
# Cellular viability was determined by employing the MTT (3-(4,5-dimethylthiazol-2-yl)-2,5-diphenyltetrazolium bromide) reduction assay, according to the Mosmann method. This colorimetric test consists in the ability of the succinate dehydrogenase enzyme from viable cells to metabolize the MTT into a formazan. In the end of treatments, cells medium was aspirated and cells were washed with 1 × PBS (phosphate-buffered saline) to remove dead cells. MTT solution (200 µL, 0.5 mg/mL) was added to each well and incubated for 2 h protected from light. Formazan precipitates were then dissolved in DMSO and absorbance measured at 570 nm. The ability to reduce MTT was expressed as a percentage of untreated, control cells.
# SH-SY5Y cells = assay: Neuroprotective effect on Aβ42-induced toxicity (MTT reduction assay); format: cell-based, human; conditions: Aβ42 2.5 μM 24 h, 1 h pre-incubation; 7 (15 µM), 8 (30 µM), 9 (2.5 µM)
# Procedure: as §1
# Cellular viability was determined by employing the MTT (3-(4,5-dimethylthiazol-2-yl)-2,5-diphenyltetrazolium bromide) reduction assay, according to the Mosmann method. […] Formazan precipitates were then dissolved in DMSO and absorbance measured at 570 nm. The ability to reduce MTT was expressed as a percentage of untreated, control cells.
# Aβ1–42 [4] = biological target: T2, Aβ1–42; conditions: self-induced aggregation, literature value for DNP; ref [3],[27]; cited from earlier work
SMILES,IC50 [1],AChE inhibition (in words) [1],inhibition at 40 µM (Aβ1–42 [2]) [%],highest non-toxic concentration (selected concentration) [3] [µM],reversal of neurotoxicity induced by Aβ peptides (in words) (SH-SY5Y cells),Aβ1–42 Aggreg. Inhib. (Aβ1–42 [4]) [%]
"Cc1ccc(S(=O)(=O)NCCN2CCN(Cc3ccccc3)CC2)cc1 [Compound 5, N-(2-(4-benzylpiperazin-1-yl)ethyl)-4-methylbenzenesulfonamide]",≥ 100 µM,do not show significant inhibition,41.8,,,
"COc1ccc(S(=O)(=O)NCCN2CCN(Cc3ccccc3)CC2)cc1 [Compound 6, N-(2-(4-benzylpiperazin-1-yl)ethyl)-4-methoxybenzenesulfonamide]",89 ± 9 µM,do not show significant inhibition,37.2,40,,
"O=S(=O)(NCCN1CCN(Cc2ccccc2)CC1)c1ccc(-c2ccccc2)cc1 [Compound 7, N-(2-(4-benzylpiperazin-1yl)ethyl)-[1,1’-biphenyl]-4-sulfonamide]",38.7 ± 0.2 µM,,34.6,15,able to relapse the neurotoxicity induced by Aβ peptides,
"COc1ccc(S(=O)(=O)NCC2CCN(Cc3ccccc3)CC2)cc1 [Compound 8, N-((1-benzylpiperidin-4-yl)methyl)-4-methoxybenzenesulfonamide]",1.6 to 6.2 µM and 6.2 µM,,64.2,30,more modest results in reverting neurotoxicity,
"O=S(=O)(NCC1CCN(Cc2ccccc2)CC1)c1ccc(-c2ccccc2)cc1 [Compound 9, N-((1-benzylpiperidin-4-yl)methyl)-[1,1’-biphenyl]-4-sulfonamide]",1.6 to 6.2 µM and 1.6 µM,,60.7,2.5,more modest results in reverting neurotoxicity,
"COc1cc2c(cc1OC)C(=O)C(CC1CCN(Cc3ccccc3)CC1)C2 (stereo not drawn) [DNP, donepezil]",,,,,,<5
"Nc1c2c(nc3ccccc13)CCCC2 [Tacrine, tacrine, reference compound]",,,54.5,,,
